According to ChEMBL document CHEMBL5108066, “Structure-Guided Discovery of Potent Antifungals that Prevent Ras Signaling by Inhibiting Protein Farnesyltransferase” (J Med Chem, 2022):
Converted amounts (≈) assume the structure as drawn. The source made the active and inactive calls. No cut-off for these calls is given here.

Tests used:
[1] = Inhibition of Cryptococcus neoformans farnesyltransferase assessed as inhibition of farnesylation of dansyl-GCVVM peptide using fluorescent peptide dansyl-GCVVM and 1uM farnesyl diphosphate as substrate by fluorescence assay
Cryptococcus neoformans [2] = assay: Antifungal activity against Cryptococcus neoformans H99 assessed as decrease in cell viability by measuring metabolic activity incubated for 72 hrs by alamar blue staining based broth dilution method; format: functional
[3] = Inhibition of rat farnesyltransferase assessed as inhibition of farnesylation of dansyl-GCVVM peptide using fluorescent peptide dansyl-GCVVM and 1uM farnesyl diphosphate as substrate by fluorescence assay
Cryptococcus neoformans [4] = assay: Uncompetitive type inhibition of Cryptococcus neoformans farnesyltransferase assessed as inhibition constant using farnesyl diphosphate and fluorescent peptide dansyl-GCVVM as substrate by steady-state kinetic analysis
Cryptococcus neoformans [5] = assay: Uncompetitive type inhibition of Cryptococcus neoformans farnesyltransferase assessed as inhibition constant using FPP in presence of 10 mM phosphate and fluorescent peptide dansyl-GCVVM as substrate by steady-state kinetic analysis
[6] = Cytotoxicity against mouse J774.A1 cells assessed as inhibition of cell viability measured at 24 hrs by AlamarBlue staining based cell viability assay; format: toxicity; conditions: read-out: MIC
[7] = system: Schizosaccharomyces pombe; assay: Antifungal activity against Schizosaccharomyces pombe efflux-defective strain MJ-1682 assessed as inhibition of fungal growth by broth microdilution method; format: functional
Cryptococcus neoformans [8] = assay: Inhibition of biofilm formation in Cryptococcus neoformans H99 incubated for 3 days by alamar blue staining based microtiter plate reader assay; format: functional; conditions: H99, 72 h, time 3 day
Cryptococcus neoformans [9] = assay: Fungicidal activity against Cryptococcus neoformans H99 assessed as reduction in colonies incubated for 48 hrs by disk diffusion method; format: functional, organism-based

| Compound | IC50 [1] [nM] | MIC (Cryptococcus neoformans [2]) [µM] | other results |
| --- | --- | --- | --- |
| N#Cc1ccc(Cn2cncc2CN2CCN(c3cccc(OC(F)(F)F)c3)C(=O)C2)cc1F | 120 | 50 (≈ 23.7 µg/mL) | – |
| CCCC[C@H]1CN(c2cccc(Cl)c2)C(=O)CN1Cc1cncn1Cc1ccc(Br)cc1 | 1100 | 12 (≈ 6.19 µg/mL) | – |
| CCCC[C@H]1CN(c2cccc(OC(F)(F)F)c2)C(=O)CN1Cc1cncn1Cc1ccc(C#N)cc1 | 340 | 12 (≈ 6.14 µg/mL) | – |
| CCCC[C@H]1CN(c2cccc(OC(F)(F)F)c2)C(=O)CN1Cc1cncn1Cc1ccc(F)c(C#N)c1 | 180 | 50 (≈ 26.5 µg/mL) | – |
| N#Cc1cc(Cn2cncc2CN2CCN(c3cccc(OC(F)(F)F)c3)C(=O)C2)ccc1F | 550 | 50 (≈ 23.7 µg/mL) | – |
| CCCC[C@H]1CN(c2cccc(OC(F)(F)F)c2)C(=O)CN1Cc1cncn1Cc1ccc(F)cc1 | 710 | 12 (≈ 6.05 µg/mL) | – |
| CCCC[C@H]1CN(c2cccc(Cl)c2)C(=O)CN1Cc1cncn1Cc1ccc(Cl)cc1 | 1600 | 25 (≈ 11.8 µg/mL) | – |
| CCCC[C@H]1CN(c2cccc(OC(F)(F)F)c2)C(=O)CN1Cc1cncn1Cc1ccc(C(F)(F)F)cc1 | 280 | 6 (≈ 3.33 µg/mL) | – |
| N#Cc1cc(Cn2cncc2CN2CCN(c3cccc(OC(F)(F)F)c3)C(=O)C2)ccc1Oc1ccccc1 | 320 | 50 (≈ 27.4 µg/mL) | – |
| N#Cc1ccc(Cn2cncc2CN2CCN(c3cccc(Cl)c3)C(=O)C2)cc1 [L-778123 FREE BASE] | – | 100 (≈ 40.6 µg/mL) | IC50 [3]: 60 nM |
| CCCC[C@H]1CN(c2cccc(OC(F)(F)F)c2)C(=O)CN1Cc1cncn1Cc1cccc(C#N)c1 | 740 | 50 (≈ 25.6 µg/mL) | – |
| CCCC[C@H]1CN(c2cccc(Cl)c2)C(=O)CN1Cc1cncn1Cc1ccc(C#N)cc1 | 100 | 50 (≈ 23.1 µg/mL) | – |
| CCCC[C@H]1CN(c2cccc(OC(F)(F)F)c2)C(=O)CN1Cc1cncn1Cc1ccc(C#N)c(F)c1 | 40 | 50 (≈ 26.5 µg/mL) | K (Cryptococcus neoformans [4]): 4.9 nM; K (Cryptococcus neoformans [5]): 4.2 nM |
| N#Cc1ccc(Cn2cncc2CN2CCN(c3cccc(OC(F)(F)F)c3)C(=O)C2)cc1 | 2700 | 50 (≈ 22.8 µg/mL) | – |
| CCCC[C@H]1CN(c2cccc(OC(F)(F)F)c2)C(=O)CN1Cc1cncn1Cc1ccc(Cl)cc1 | 260 | 6 (≈ 3.13 µg/mL) | – |
| CCCCC[C@H]1CN(c2cccc(OC(F)(F)F)c2)C(=O)CN1Cc1cncn1Cc1ccc(Br)cc1 | 160 | 3 (≈ 1.74 µg/mL) | – |
| CCCC[C@H]1CN(c2ccccc2)C(=O)CN1Cc1cncn1Cc1ccc(Br)cc1 | 920 | 50 (≈ 24.1 µg/mL) | – |
| CCCC[C@H]1CN(c2cccc(OC(F)(F)F)c2)C(=O)CN1Cc1cncn1Cc1ccc(Br)cc1 | 190 | 3 (≈ 1.7 µg/mL) | K (Cryptococcus neoformans [4]): 750 nM; IC50 [3]: 2 nM; MCC at 24 h [6]: 300 µM; MIC [7]: 1.5 µM (≈ 0.848 µg/mL); K (Cryptococcus neoformans [5]): 500 nM; MIC (Cryptococcus neoformans [8]): 12.5 µM (≈ 7.07 µg/mL); Activity (Cryptococcus neoformans [9]): Active |
| N#Cc1ccc(Cn2cncc2CN2CCN(c3cccc(OC(F)(F)F)c3)C(=O)C2)cc1Oc1ccccc1 | 2600 | 50 (≈ 27.4 µg/mL) | – |
| CCCC[C@H]1CN(c2cccc(OC(F)(F)F)c2)C(=O)CN1Cc1cncn1Cc1ccc(Oc2ccccc2)c(C#N)c1 | 210 | 50 (≈ 30.2 µg/mL) | – |
| CCCC[C@H]1CN(c2cccc(C)c2C)C(=O)CN1Cc1cncn1Cc1ccc(C#N)cc1 | 2200 | 50 (≈ 22.8 µg/mL) | – |
| CCC[C@H]1CN(c2cccc(OC(F)(F)F)c2)C(=O)CN1Cc1cncn1Cc1ccc(Br)cc1 | 1100 | 6 (≈ 3.31 µg/mL) | – |
| CCCC[C@H]1CN(c2cccc(OC(F)(F)F)c2)C(=O)CN1Cc1cncn1Cc1ccccc1 | 1900 | 25 (≈ 12.2 µg/mL) | – |
| CCCC[C@H]1CN(c2cccc(OC(F)(F)F)c2)C(=O)CN1Cc1cncn1Cc1ccc(C#N)c(Oc2ccccc2)c1 | 150 | 50 (≈ 30.2 µg/mL) | – |
